US9200008B2 (ASKA PHARMACEUTICAL CO., LTD., priority 2010, dated 2015)

The compounds below were run on Human prostate cancer cell lines (PC-3 cells) (assay: Measurement of cell death-inducing activity (Test Example 1)). Conditions: PC-3, 48 h, 48 hours after addition, tested at 10, 1, 0.1, 0.025 and 0.00625 μmol/L, qualitative evaluation of 10 fields, read-out: Concentration showing the cell death-inducing activity (cell death-inducing rate not less than 40%).
Type: cell-based
Summary of the method: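 PC-3 cells seeded at 1×10^5 cells/well and grown 48 h at 37 °C, 5% CO2, then exposed to compound at 10, 1, 0.1, 0.025 and 0.00625 μmol/L (DMSO control) for a further 48 h. Activity was called where cell death-inducing rate was not less than 40%.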

**Q.** COc1ccc(CN(C)NC(=O)c2sc(-c3ccccc3C)nc2C)cc1 [Example 16-3] was tested. Which minimal effective concentration did it give?
**A.** 1 µM

**Q.** How did the minimal effective concentration turn out when COc1ccc(CN(C)NC(=O)c2sc(-c3ccccc3OC)nc2C)cc1 [Example 16-4] was run?
**A.** 1 µM

**Q.** Which minimal effective concentration does the source give for COc1ccc(CN(C)NC(=O)c2sc(-c3cccc(C)c3C)nc2C)cc1 [Example 16-5] here?
**A.** 10 µM

**Q.** For COc1ccc(CN(C)NC(=O)c2sc(-c3ccc(Cl)cc3C)nc2C)cc1 [Example 16-6], which minimal effective concentration is on record?
**A.** 0.1 µM

**Q.** Which minimal effective concentration does the source give for COc1ccc(CN(C)NC(=O)c2sc(-c3ccc(F)cc3F)nc2C)cc1 [Example 16-7] here?
**A.** 1 µM

**Q.** COc1ccc(CN(C)NC(=O)c2sc(-c3ccc(F)cc3OC)nc2C)cc1 [Example 16-8] was tested. Which minimal effective concentration did it give?
**A.** 0.1 µM

**Q.** Which minimal effective concentration does the source give for COc1ccc(CN(C)NC(=O)c2sc(-c3ccc(OC)cc3Cl)nc2C)cc1 [Example 16-9] here?
**A.** 10 µM

**Q.** For COc1ccc(CN(C)NC(=O)c2sc(-c3ccc(Cl)cc3Cl)nc2C)cc1 [Example 16-10], which minimal effective concentration is on record?
**A.** 1 µM

**Q.** COc1ccc(CN(C)NC(=O)c2sc(-c3ccc(C)cc3C)nc2C)cc1 [Example 16-11] was tested. Which minimal effective concentration did it give?
**A.** 0.1 µM

**Q.** Which minimal effective concentration does the source give for CCN(Cc1ccc(OC)cc1)NC(=O)c1sc(-c2ccccc2OC)nc1C [Example 16-12] here?
**A.** 1 µM

**Q.** With CCN(Cc1ccc(OC)cc1)NC(=O)c1sc(-c2ccc(Cl)cc2OC)nc1C [Example 16-13] as the compound, how does the minimal effective concentration read?
**A.** 0.1 µM

**Q.** How did the minimal effective concentration turn out when CCN(Cc1ccc(OC)cc1)NC(=O)c1sc(-c2cccc(C)c2C)nc1C [Example 16-14] was run?
**A.** 10 µM

**Q.** CCN(Cc1ccc(OC)cc1)NC(=O)c1sc(-c2ccc(Cl)cc2C)nc1C [Example 16-15] was tested. Which minimal effective concentration did it give?
**A.** 1 µM

**Q.** COc1ccc(CN(C)NC(=O)c2sc(-c3ccc(Cl)cc3OC)nc2C)cc1OC [Example 16-16] was tested. Which minimal effective concentration did it give?
**A.** 1 µM

**Q.** COc1ccc(CN(C)NC(=O)c2sc(-c3ccc(Cl)cc3C)nc2C)cc1OC [Example 16-17] was tested. Which minimal effective concentration did it give?
**A.** 1 µM

**Q.** With COc1cc(Cl)ccc1-c1nc(C)c(C(=O)NN(C)Cc2ccc3c(c2)CCO3)s1 [Example 16-18] as the compound, how does the minimal effective concentration read?
**A.** 1 µM

**Q.** CCOc1ccc(CN(C)NC(=O)c2sc(-c3ccc(Cl)cc3OC)nc2C)cc1 [Example 16-19] was tested. Which minimal effective concentration did it give?
**A.** 0.1 µM

**Q.** With COc1ccc(CN(C)NC(=O)c2sc(-c3ccc(Cl)cc3OC)nc2C)cc1F [Example 16-20] as the compound, how does the minimal effective concentration read?
**A.** 0.1 µM

**Q.** How did the minimal effective concentration turn out when COc1ccc(CN(C)NC(=O)c2sc(-c3ccc(F)cc3F)nc2C)cc1F [Example 16-21] was run?
**A.** 1 µM

**Q.** For COc1cc(Cl)ccc1-c1nc(C)c(C(=O)NN(C)Cc2ccc(SC)cc2)s1 [Example 16-22], which minimal effective concentration is on record?
**A.** 1 µM

**Q.** With COc1ccc(CN(C)NC(=O)c2sc(-c3ccc(Cl)cc3OC)nc2C)cc1C [Example 16-23] as the compound, how does the minimal effective concentration read?
**A.** 1 µM

**Q.** How did the minimal effective concentration turn out when COc1ccc(CN(C)NC(=O)c2sc(-c3ccc(Cl)cc3OC)nc2C)cc1O [Example 16-24] was run?
**A.** 0.1 µM

**Q.** For COc1ccc(CN(C)NC(=O)c2sc(-c3ccc(Cl)cc3C)nc2C)cc1O [Example 16-25], which minimal effective concentration is on record?
**A.** 0.1 µM

**Q.** For Cc1cc(Cl)ccc1-c1nc(C)c(C(=O)NNCc2ccc3c(ccn3C)c2)s1 [Example 17-1], which minimal effective concentration is on record?
**A.** 0.1 µM

**Q.** Which minimal effective concentration does the source give for Cc1cc(Cl)ccc1-c1nc(C)c(C(=O)NN(C)Cc2ccc3c(ccn3C)c2)s1 [Example 17-2] here?
**A.** 0.025 µM

**Q.** For COc1cc(Cl)ccc1-c1nc(C)c(C(=O)NNCc2cc(C)c(O)c(C)c2)s1 [Example 17-3, 2-(4-Chloro-2-methoxyphenyl)-4-methylthiazole-5-carboxylic acid N′-(4-hydroxy-3,5-dimethylbenzyl)hydrazide], which minimal effective concentration is on record?
**A.** 1 µM

**Q.** How did the minimal effective concentration turn out when COc1cc(Cl)ccc1-c1nc(C)c(C(=O)NN(C)Cc2cc(C)c(O)c(C)c2)s1 [Example 17-4, 2-(4-Chloro-2-methoxyphenyl)-4-methylthiazole-5-carboxylic acid N′-(4-hydroxy-3,5-dimethylbenzyl)-N′-methyl hydrazide] was run?
**A.** 10 µM

**Q.** For COc1ccc(CN(C)NC(=O)c2cc(-c3ccc(Cl)cc3OC)n[nH]2)cc1 [Example 18-1, 5-(4-Chloro-2-methoxyphenyl)-2H-pyrazole-3-carboxylic acid N′-(4-methoxybenzyl)-N′-methyl hydrazide], which minimal effective concentration is on record?
**A.** 1 µM

**Q.** Which minimal effective concentration does the source give for CCN(Cc1ccc(OC)cc1)NC(=O)c1cc(-c2ccc(Cl)cc2OC)n[nH]1 [Example 18-2, 5-(4-Chloro-2-methoxyphenyl)-2H-pyrazole-3-carboxylic acid N′-ethyl-N′-(4-methoxybenzyl)hydrazide] here?
**A.** 1 µM

**Q.** For COc1ccc(CN(C)NC(=O)c2cc(-c3ccc(Cl)cc3OC)ns2)cc1 [Example 19-1, 3-(4-Chloro-2-methoxyphenyl)isothiazole-5-carboxylic acid N′-(4-methoxybenzyl)-N′-methyl hydrazide], which minimal effective concentration is on record?
**A.** 10 µM

**Q.** CCN(Cc1ccc(OC)cc1)NC(=O)c1cc(-c2ccc(Cl)cc2OC)ns1 [Example 19-2, 3-(4-Chloro-2-methoxyphenyl)isothiazole-5-carboxylic acid N′-(4-methoxybenzyl)-N′-ethyl hydrazide] was tested. Which minimal effective concentration did it give?
**A.** 10 µM

**Q.** With COc1ccc(CN(C)NC(=O)c2cc(-c3ccccc3OC)oc2C)cc1 [Example 20-1, 5-(2-Methoxyphenyl)-2-methylfuran-3-carboxylic acid N′-(4-methoxybenzyl)-N′-methyl hydrazide] as the compound, how does the minimal effective concentration read?
**A.** 10 µM

**Q.** With O=C(N/N=C/c1ccc(O)cc1Cl)c1cc(-c2ccc(Cl)cc2Cl)n[nH]1 [Example 21-8] as the compound, how does the minimal effective concentration read?
**A.** 10 µM

**Q.** For Cc1cc(/C=N/NC(=O)c2cc(-c3ccc(Cl)cc3Cl)n[nH]2)cc(C)c1O [Example 21-11], which minimal effective concentration is on record?
**A.** 1 µM

**Q.** O=C(N/N=C/c1ccc(O)c(Cl)c1)c1cc(-c2ccc(Cl)cc2Cl)n[nH]1 [Example 21-13] was tested. Which minimal effective concentration did it give?
**A.** 10 µM

**Q.** How did the minimal effective concentration turn out when O=C(N/N=C/c1ccc([N+](=O)[O-])c(O)c1)c1cc(-c2ccc(Cl)cc2Cl)n[nH]1 [Example 21-15] was run?
**A.** 10 µM

**Q.** O=C(N/N=C/c1ccc(O)c(F)c1)c1cc(-c2ccc(Cl)cc2Cl)n[nH]1 [Example 21-18] was tested. Which minimal effective concentration did it give?
**A.** 10 µM

**Q.** With Cc1cc(/C=N/NC(=O)c2cc(-c3ccc(Cl)cc3)n[nH]2)cc(C)c1O [Example 21-21] as the compound, how does the minimal effective concentration read?
**A.** 1 µM

**Q.** With COc1cc(Cl)ccc1-c1cc(C(=O)N/N=C/c2ccc3c(c2)ncn3C)n(C)n1 [Example 21-25] as the compound, how does the minimal effective concentration read?
**A.** 0.1 µM

**Q.** Which minimal effective concentration does the source give for COc1ccc(/C=N/NC(=O)c2cc(-c3ccccc3Cl)n[nH]2)cc1O [Example 22-1, 5-(2-Chlorophenyl)-2H-pyrazole-3-carboxylic acid [1-(3-hydroxy-4-methoxyphenyl)methylidene]hydrazide] here?
**A.** 10 µM

**Q.** With COc1ccc(/C=N/NC(=O)c2cc(-c3ccccc3C)n[nH]2)cc1O [Example 22-3] as the compound, how does the minimal effective concentration read?
**A.** 1 µM

**Q.** For COc1ccccc1-c1cc(C(=O)N/N=C/c2cc(C)c(O)c(C)c2)[nH]n1 [Example 22-6], which minimal effective concentration is on record?
**A.** 1 µM

**Q.** How did the minimal effective concentration turn out when COc1ccc(/C=N/NC(=O)c2cc(-c3ccc(Cl)cc3OC)n[nH]2)cc1O [Example 22-8] was run?
**A.** 1 µM

**Q.** For COc1cc(Cl)ccc1-c1cc(C(=O)N/N=C/c2cc(C)c(O)c(C)c2)[nH]n1 [Example 22-9], which minimal effective concentration is on record?
**A.** 0.1 µM

**Q.** Which minimal effective concentration does the source give for COc1cc(Cl)ccc1-c1cc(C(=O)N/N=C/c2ccc3c(c2)ncn3C)[nH]n1 [Example 22-10] here?
**A.** 0.1 µM

**Q.** COc1ccc(/C=N/NC(=O)c2sc(-c3ccc(Cl)cc3Cl)nc2C)cc1O [Example 23-1, 2-(2,4-Dichlorophenyl)-4-methylthiazole-5-carboxylic acid[1-(3-hydroxy-4-methoxyphenyl)methylidene]hydrazide] was tested. Which minimal effective concentration did it give?
**A.** 10 µM

**Q.** COc1ccc(/C=N/NC(=O)c2sc(-c3ccccc3Cl)nc2C)cc1O [Example 23-2] was tested. Which minimal effective concentration did it give?
**A.** 0.1 µM

**Q.** With COc1ccc(/C=N/NC(=O)c2sc(-c3ccccc3Cl)nc2C)c(Cl)c1O [Example 23-4] as the compound, how does the minimal effective concentration read?
**A.** 0.1 µM

**Q.** With COc1cc(/C=N/NC(=O)c2sc(-c3ccccc3Cl)nc2C)cc(O)c1OC [Example 23-5] as the compound, how does the minimal effective concentration read?
**A.** 10 µM

**Q.** Which minimal effective concentration does the source give for COc1ccc(/C=N/NC(=O)c2sc(-c3ccc(Cl)cc3)nc2C)cc1O [Example 23-7] here?
**A.** 0.1 µM

**Q.** Cc1cc(/C=N/NC(=O)c2sc(-c3ccc(Cl)cc3)nc2C)cc(C)c1O [Example 23-8] was tested. Which minimal effective concentration did it give?
**A.** 1 µM

**Q.** How did the minimal effective concentration turn out when Cc1cc(/C=N/NC(=O)c2sc(-c3ccc(Cl)cc3)nc2C)ccc1O [Example 23-11] was run?
**A.** 10 µM

**Q.** For COc1ccc(/C=N/NC(=O)c2sc(-c3ccccc3C)nc2C)cc1O [Example 23-12], which minimal effective concentration is on record?
**A.** 0.1 µM

**Q.** With COc1ccc(/C=N/NC(=O)c2sc(-c3ccccc3C(F)(F)F)nc2C)cc1O [Example 23-13] as the compound, how does the minimal effective concentration read?
**A.** 1 µM

**Q.** How did the minimal effective concentration turn out when COc1ccc(/C=N/NC(=O)c2sc(-c3ccccc3OC)nc2C)cc1O [Example 23-14] was run?
**A.** 0.1 µM

**Q.** How did the minimal effective concentration turn out when COc1ccc(/C=N/NC(=O)c2sc(-c3cccc(Cl)c3Cl)nc2C)cc1O [Example 23-15] was run?
**A.** 0.1 µM

**Q.** Which minimal effective concentration does the source give for COc1ccc(/C=N/NC(=O)c2sc(-c3ccc(Cl)cc3)nc2C(F)(F)F)cc1O [Example 23-18] here?
**A.** 10 µM

**Q.** With Cc1cc(/C=N/NC(=O)c2sc(-c3ccc(Cl)cc3)nc2C(F)(F)F)cc(C)c1O [Example 23-19] as the compound, how does the minimal effective concentration read?
**A.** 10 µM

**Q.** With COc1ccc(/C=N/NC(=O)c2sc(-c3ccc(Cl)cc3)nc2C(C)(C)C)cc1O [Example 23-20] as the compound, how does the minimal effective concentration read?
**A.** 10 µM

**Q.** Cc1cc(/C=N/NC(=O)c2sc(-c3ccc(Cl)cc3)nc2C(C)(C)C)cc(C)c1O [Example 23-21] was tested. Which minimal effective concentration did it give?
**A.** 10 µM

**Q.** For COc1ccc(/C=N/NC(=O)c2sc(-c3cccc(C)c3C)nc2C)cc1O [Example 23-22], which minimal effective concentration is on record?
**A.** 1 µM

**Q.** Cc1cccc(-c2nc(C)c(C(=O)N/N=C/c3cc(C)c(O)c(C)c3)s2)c1C [Example 23-23] was tested. Which minimal effective concentration did it give?
**A.** 1 µM

**Q.** How did the minimal effective concentration turn out when COc1ccc(/C=N/NC(=O)c2sc(-c3cccc(OC)c3OC)nc2C)cc1O [Example 23-24] was run?
**A.** 10 µM

**Q.** Which minimal effective concentration does the source give for COc1ccc(/C=N/NC(=O)c2sc(-c3ncccc3C)nc2C)cc1O [Example 23-26] here?
**A.** 1 µM
